Source: US11535629B2, “Dioxoloisoquinolinone derivatives and use thereof” (HANMI PHARMACEUTICAL CO., LTD., priority 2020, dated 2022)
Like-named read-outs stand apart in the source and are kept apart here.

System: KARPAS-422 cells
Test: Cell growth inhibition test (CTG method)
Type: cell-based
Conditions: KARPAS-422 (EZH2^Y641N mutant), culturing for 7 days, read-out: Cell growth inhibitory activity (GI50, nM) KARPAS-422 (EZH2^Y641N mutant)
Description: The cultured cell strain was prepared at 1.8×10^4 cells/400 μL and placed in a 48-well plate.

[1] = Homo sapiens, KARPAS-422, 168 h

SMILES | GI50 | GI50 [1]
Cc1cc(C)c(CN2CCc3c(Cl)c4c(c(C)c3C2=O)OC(C)(C23CCC(N(C)C)(CC2)CC3)O4)c(=O)[nH]1 (single isomer, unassigned) [Compound 3, 9-chloro-6-((4,6-dimethyl-2-oxo-1,2-dihydropyridin-3-yl)methyl)-2-(4-(dimethylamino)bicyclo[2.2.2]octan-1-yl)-2,4-dimethyl-7,8-dihydro-[1,3]dioxolo[4,5-g]isoquinolin-5(6H)-one] | 100 to 1000 nM | –
Cc1cc(C)c(CN2CCc3c(c(C)c4c(c3-c3cncnc3)O[C@@](C)([C@H]3CC[C@H](N(C)C)CC3)O4)C2=O)c(=O)[nH]1 [Compound 47, (S)-6-((4,6-dimethyl-2-oxo-1,2-dihydropyridin-3-yl)methyl)-2-(trans-4-(dimethylamino)cyclohexyl)-2,4-dimethyl-9-(pyrimidin-5-yl)-7,8-dihydro-[1,3]dioxolo[4,5-g]isoquinolin-5(6H)-one] | – | > 1000 nM
Cc1cc(C)c(CN2CCc3c(c(C)c4c(c3-c3ccco3)O[C@@](C)([C@H]3CC[C@H](N(C)C)CC3)O4)C2=O)c(=O)[nH]1 [Compound 31, (S)-6-((4,6-dimethyl-2-oxo-1,2-dihydropyridin-3-yl)methyl)-2-(trans-4-(dimethylamino)cyclohexyl)-9-(furan-2-yl)-2,4-dimethyl-7,8-dihydro-[1,3]dioxolo[4,5-g]isoquinolin-5(6H)-one] | – | > 1000 nM
Cc1cc(C)c(CN2CCc3c(c(C)c4c(c3-c3ccsc3)O[C@@](C)([C@H]3CC[C@H](N(C)C)CC3)O4)C2=O)c(=O)[nH]1 [Compound 51, (S)-6-((4,6-dimethyl-2-oxo-1,2-dihydropyridin-3-yl)methyl)-2-(trans-4-(dimethylamino)cyclohexyl)-2,4-dimethyl-9-(thiophen-3-yl)-7,8-dihydro-[1,3]dioxolo[4,5-g]isoquinolin-5(6H)-one] | – | > 1000 nM
Cc1cc(C)c(CN2CCc3c(c(C)c4c(c3C3CCCC3)OC(C)(C35CCC(N(C)C)(CC3)CC5)O4)C2=O)c(=O)[nH]1 (stereo not shown) [Compound 16, 9-cyclopentyl-6-((4,6-dimethyl-2-oxo-1,2-dihydropyridin-3-yl)methyl)-2-(4-(dimethylamino)bicyclo[2.2.2]octan-1-yl)-2,4-dimethyl-7,8-dihydro-[1,3]dioxolo[4,5-g]isoquinolin-5(6H)-one] | – | 36 nM
Cc1cc(C)c(CN2CCc3c(c(C)c4c(c3-c3ccoc3)O[C@@](C)([C@H]3CC[C@H](N(C)C)CC3)O4)C2=O)c(=O)[nH]1 [Compound 57, (S)-6-((4,6-dimethyl-2-oxo-1,2-dihydropyridin-3-yl)methyl)-2-(trans-4-(dimethylamino)cyclohexyl)-9-(furan-3-yl)-2,4-dimethyl-7,8-dihydro-[1,3]dioxolo[4,5-g]isoquinolin-5(6H)-one] | – | > 1000 nM
CN[C@H]1CC[C@H]([C@]2(C)Oc3c(C)c4c(c(-c5ccco5)c3O2)CCN(Cc2c(C)cc(C)[nH]c2=O)C4=O)CC1 [Compound 60, (R)-6-((4,6-dimethyl-2-oxo-1,2-dihydropyridin-3-yl)methyl)-9-(furan-2-yl)-2,4-dimethyl-2-(trans-4-(methylamino)cyclohexyl)-7,8-dihydro-[1,3]dioxolo[4,5-g]isoquinolin-5(6H)-one] | – | 19 nM
Cc1cc(C)c(CN2CCc3c(c(C)c4c(c3-c3ccncc3)O[C@@](C)([C@H]3CC[C@H](N(C)C)CC3)O4)C2=O)c(=O)[nH]1 [Compound 35, (S)-6-((4,6-dimethyl-2-oxo-1,2-dihydropyridin-3-yl)methyl)-2-(trans-4-(dimethylamino)cyclohexyl)-2,4-dimethyl-9-(pyridin-4-yl)-7,8-dihydro-[1,3]dioxolo[4,5-g]isoquinolin-5(6H)-one] | – | > 1000 nM
Cc1cc(C)c(CN2CCc3c(c(C)c4c(c3-c3ccc(F)nc3)O[C@@](C)([C@H]3CC[C@H](N(C)C)CC3)O4)C2=O)c(=O)[nH]1 [Compound 37, (S)-6-((4,6-dimethyl-2-oxo-1,2-dihydropyridin-3-yl)methyl)-2-(trans-4-(dimethylamino)cyclohexyl)-9-(6-fluoropyridin-3-yl)-2,4-dimethyl-7,8-dihydro-[1,3]dioxolo[4,5-g]isoquinolin-5(6H)-on] | – | > 1000 nM
C#Cc1c2c(c(C)c3c1OC(C)(C14CCC(N(C)C)(CC1)CC4)O3)C(=O)N(Cc1c(C)cc(C)[nH]c1=O)CC2 (stereo not shown) [Compound 21, 6-((4,6-dimethyl-2-oxo-1,2-dihydropyridin-3-yl)methyl)-2-(4-(dimethylamino)bicyclo[2.2.2]octan-1-yl)-9-ethynyl-2,4-dimethyl-7,8-dihydro-[1,3]dioxolo[4,5-g]isoquinolin-5(6H)-one] | – | 18 nM
Cc1cc(C)c(CN2CCc3c(c(C)c4c(c3-c3cnn(C)c3)O[C@](C)([C@H]3CC[C@H](N(C)C)CC3)O4)C2=O)c(=O)[nH]1 [Compound 38, (R)-6-((4,6-dimethyl-2-oxo-1,2-dihydropyridin-3-yl)methyl)-2-(trans-4-(dimethylamino)cyclohexyl)-2,4-dimethyl-9-(1-methyl-1H-pyrazol-4-yl)-7,8-dihydro-[1,3]dioxolo[4,5-g]isoquinolin-5(6H)-on] | – | 5.8 nM
Cc1cc(C)c(CN2CCc3c(c(C)c4c(c3-n3ccnc3)O[C@@](C)([C@H]3CC[C@H](N(C)C)CC3)O4)C2=O)c(=O)[nH]1 [Compound 55, (S)-6-((4,6-dimethyl-2-oxo-1,2-dihydropyridin-3-yl)methyl)-2-(trans-4-(dimethylamino)cyclohexyl)-9-(1H-imidazol-1-yl)-2,4-dimethyl-7,8-dihydro-[1,3]dioxolo[4,5-g]isoquinolin-5(6H)-one] | – | > 1000 nM
Cc1cc(C)c(CN2CCc3c(c(C)c4c(c3-c3cncnc3)O[C@](C)([C@H]3CC[C@H](N(C)C)CC3)O4)C2=O)c(=O)[nH]1 [Compound 46, (R)-6-((4,6-dimethyl-2-oxo-1,2-dihydropyridin-3-yl)methyl)-2-(trans-4-(dimethylamino)cyclohexyl)-2,4-dimethyl-9-(pyrimidin-5-yl)-7,8-dihydro-[1,3]dioxolo[4,5-g]isoquinolin-5(6H)-one] | – | 7 nM
Cc1cc(C)c(CN2CCc3c(C)c4c(c(C)c3C2=O)OC(C)(C23CCC(N(C)C)(CC2)CC3)O4)c(=O)[nH]1 (stereo not shown) [Compound 22, 6-((4,6-dimethyl-2-oxo-1,2-dihydropyridin-3-yl)methyl)-2-(4-(dimethylamino)bicyclo[2.2.2]octan-1-yl)-2,4,9-trimethyl-7,8-dihydro-[1,3]dioxolo[4,5-g]isoquinolin-5(6H)-one] | 12 to 19 nM | –
Cc1cc(C)c(CNC(=O)c2cc(Cl)c3c(c2C)O[C@@](C)([C@H]2CC[C@H](N(C)C)CC2)O3)c(=O)[nH]1 [Control B, (2R)-7-chloro-2-[trans-4-(dimethylamino)cyclohexyl]-N-[(4,6-dimethyl-2-oxo-1,2-dihydropyridin-3-yl)methyl]-2,4-dimethyl-1,3-benzodioxole-5-carboxamide, reference compound] | – | 1.3 to 15 nM
Cc1cc(C)c(CN2CCc3c(Cl)c4c(c(C)c3C2=O)OC(C)(C23CCC(N(C)C)(CC2)CC3)O4)c(=O)[nH]1 (stereo not shown) [Compound 1, 9-chloro-6-((4,6-dimethyl-2-oxo-1,2-dihydropyridin-3-yl)methyl)-2-(4-(dimethylamino)bicyclo[2.2.2]octan-1-yl)-2,4-dimethyl-7,8-dihydro-[1,3]dioxolo[4,5-g]isoquinolin-5(6H)-one] | – | 10 to 100 nM
Cc1cc(C)c(CN2CCc3c(Cl)c4c(c(Cl)c3C2=O)OC(C)(C23CCC(N(C)C)(CC2)CC3)O4)c(=O)[nH]1 (stereo not shown) [Compound 28, 4,9-dichloro-6-((4,6-dimethyl-2-oxo-1,2-dihydropyridin-3-yl)methyl)-2-(4-(dimethylamino)bicyclo[2.2.2]octan-1-yl)-2-methyl-7,8-dihydro-[1,3]dioxolo[4,5-g]isoquinolin-5(6H)-one] | – | 13 nM
Cc1cc(C)c(CN2CCc3c(c(C)c4c(c3-c3cccn3C)O[C@@](C)([C@H]3CC[C@H](N(C)C)CC3)O4)C2=O)c(=O)[nH]1 [Compound 49, (S)-6-((4,6-dimethyl-2-oxo-1,2-dihydropyridin-3-yl)methyl)-2-(trans-4-(dimethylamino)cyclohexyl)-2,4-dimethyl-9-(1-methyl-1H-pyrrol-2-yl)-7,8-dihydro-[1,3]dioxolo[4,5-g]isoquinolin-5 (6H)-one] | – | > 1000 nM
CN[C@H]1CC[C@H]([C@@]2(C)Oc3c(C)c4c(c(-c5ccco5)c3O2)CCN(Cc2c(C)cc(C)[nH]c2=O)C4=O)CC1 [Compound 61, (S)-6-((4,6-dimethyl-2-oxo-1,2-dihydropyridin-3-yl)methyl)-9-(furan-2-yl)-2,4-dimethyl-2-(trans-4-(methylamino)cyclohexyl)-7,8-dihydro-[1,3]dioxolo[4,5-g]isoquinolin-5(6H)-one] | – | > 1000 nM
COc1cc(C)[nH]c(=O)c1CN1CCc2c(Cl)c3c(c(C)c2C1=O)OC(C)(C12CCC(N(C)C)(CC1)CC2)O3 (single isomer, unassigned) [Compound 6, 9-chloro-2-(4-(dimethylamino)bicyclo[2.2.2]octan-1-yl)-6-((4-methoxy-6-methyl-2-oxo-1,2-dihydropyridin-3-yl)methyl)-2,4-dimethyl-7,8-dihydro[1,3]dioxolo[4,5-g]isoquinolin-5(6H)-one] | > 1000 nM | –
Cc1cc(C)c(CN2CCc3c(c(C)c4c(c3-c3cncs3)O[C@@](C)([C@H]3CC[C@H](N(C)C)CC3)O4)C2=O)c(=O)[nH]1 [Compound 53, (S)-6-((4,6-dimethyl-2-oxo-1,2-dihydropyridin-3-yl)methyl)-2-(trans-4-(dimethylamino)cyclohexyl)-2,4-dimethyl-9-(thiazol-5-yl)-7,8-dihydro-[1,3]dioxolo[4,5-g]isoquinolin-5(6H)-one] | – | > 1000 nM
Cc1cc(C)c(CN2CCc3c(C)c4c(c(C)c3C2=O)OC(C)(C23CCC(N(C)C)(CC2)CC3)O4)c(=O)[nH]1 (stereo not shown) [Compound 24, 6-((4,6-dimethyl-2-oxo-1,2-dihydropyridin-3-yl)methyl)-2-(4-(dimethylamino)bicyclo[2.2.2]octan-1-yl)-2,4,9-trimethyl-7,8-dihydro-[1,3]dioxolo[4,5-g]isoquinolin-5(6H)-one] | 100 to 1000 nM | –
